From US20120131697A1, “GENE ENCODING AUXIN RECEPTOR PROTEIN DERIVED FROM RICE AND USE THEREOF” (REPUBLIC OF KOREA (MANAGEMENT: RURAL DEVELOPMENT …, priority 2009, published 2012) come the findings set out here.

Test [1] has as its target ABP57 (Oryza sativa subsp. japonica, UniProt B7ELI0). Kind of test: Scatchard analysis of binding between recombinant ABP57 and auxin hormone IAA. Also on record: species or system rice. The following applies: recombinant protein.
The subject of test [2] is proton pump in plasma membrane. Description: Activation of proton pump in rice plasma membrane by ABP57 protein (fluorescence analyzer, Hill plot). The format is biochemical. As for the experimental part:
The purified protein and the proton pump in plasma membrane, which had been separated from rice, were admixed with each other, and then the activity of proton pump was measured by fluorescence analyzer.
The change in degree of activating proton pump according to concentration of the recombinant protein was measured and analyzed by Hill plot analysis. […] Further, this value was very close to the Hill coefficient of 0.97, which was obtained by previous studies for the interaction between the proton pump and natural ABP57 (FIG. 8).

In the case of `O=C(O)Cc1c[nH]c2ccccc12` [IAA, indole-3-acetic acid], in test [1] (FIG. 9, read-out: IAA dissociation constant), the Kd worked out at 3.6 µM. In test [1] (corresponds to low affinity binding site of natural ABP57), the “number of binding site” value is listed as 1.

B1: recombinant protein: recombinant auxin receptor protein ABP57 from rice, expressed in E. coli as MBP fusion, MBP removed (SEQ ID NO: 1) (protein, listed as Oryza sativa)
chain: MAEIVSSVVVHEAVNQIIHGLVNWNERKSSAEENMERLEMAHIRLEAALETSCKWRITDSSLLCWQKKLKRAAQECDDTLRKCRQRILEQEEAEQEVRNSSIPRRIAHATKSLVSSLFYSNIDGSCRSAVRRFEWFADGANEFLRFVEFGGTPHQYLFFDPLIRQLLAGKTLEYKLVSENKYRLFVIRPFCISENRIEARLIFDSKNASALEDDFFLCMLLQVSESVDILGIVIKCLQLFNPHFMSTAESVRNELTQLPSQDFTWVPYAESCHKKHWDNIHSITTQWFRPNPLCCKQHGQNHSCESSNLGMPSVQGVSLGPVIEVSLQCHVPVPEFREQGTIVKGKPSLKKCPHMKVDLVYTPHGSSQDLLPEIKSSVIEVINGDKQHCLHTNIALELMEEIMLPRAVDCFHENAEAKLYQMLWKSKHGGAYLQVMKATMNTRSTQRTIRGSRKAKLLQQQGHKTQHRTNAISDFLNLWSAHAPVQLQGSILDWIQKEKEAQLAPPLLRLKF
Regarding B1, in test [2] (degree of activating proton pump according to concentration of recombinant protein, Hill plot, FIG. 8), the Hill coefficient came to 0.94. In addition, in test [2] (purified recombinant protein admixed with proton pump in plasma membrane separated from rice, FIG. 7), the “activity of proton pump” value is recorded as “increase in the activity of proton pump”.
